US20060100567A1, “Microsurgical tissue treatment system” (Rocky Mountain Biosystems, Inc, priority 2004, published 2006)

Experiment: Delivery of a topical anesthetic through micro-ablated stratum corneum
Assay type: in vivo
Details: solution of 4% lidocaine applied for five minutes to approx. 1 cm^2 area ablated by piezoelectric actuator with 60 micron aluminum oxide particles, 10-15 pulses, 20 kHz
Experimental: A piezoelectric actuator was fitted with 60 micron aluminum oxide particles fixed to its surface so as to provide an approximate 1 cm^2 treatment area. Ten to fifteen pulses of less than one second duration were applied with force of less than 1 pound to the area and frequency of 20 kHz. […] A solution of 4% lidocaine was applied to the area and incubated for five minutes. The excess lidocaine was wiped off, and a series of probes was made in and around the area of treatment using a 20 gauge needle or by pinching.

In the case of `CCN(CC)CC(=O)Nc1c(C)cccc1C` [lidocaine], the “anesthesia (sensation on probing with a 20 gauge needle or pinching)” value was “significant anesthesia was obtained”.
